Measurements taken from patent US20190022225A1, “PROTOCOL FOR INCREASING LIFE EXPECTANCY IN A TEST SUBJECT” (Mayo Foundation for Medical Education and Research, priority 2015, published 2019).

How the values were obtained:
[1] = test system: doxorubicin-induced senescent foreskin fibroblasts (HCA2) and aortic endothelial cells (Endo Aort); test: Cell count survival assay of Nutlin-3a on doxorubicin-induced senescent cells; type: cell-based; conditions: doxorubicin 250 nM 24 h; HCA2 9 days, aortic endothelial cells 11 days of Nutlin-3a
Method: (§1) Foreskin fibroblast cell lines HCA2 and BJ, lung fibroblast cell line IMR90, and mouse embryonic fibroblasts were seeded in six-well plates and induced to senesce with 10 Gy of ionizing radiation (IR) or a 24 hr treatment with doxorubicin (Doxo). Senescent phenotype was allowed to develop for at least 7 days, at which point a cell count was made to determine the baseline number of cells. Nutlin-3a treatment was then initiated for a period of at least 9 days. Media alone or media with drug as appropriate was refreshed at least every three days. At the end of the assay time period, cells are counted. Each condition was seeded in three plate wells and counted independently. Initial cell count serves as a control to determine the induction of senescence, as compared to the last day count without nutlin treatment. Initial non-senescent cell count serves as a proxy to determine Nutlin-3a toxicity.
Foreskin fibroblasts (HCA2) and aortic endothelial cells (Endo Aort) were treated with doxorubicin (250 nM) for one day (24 hours) to induce senescence (see FIG. 1). Eight days following doxorubicin treatment, Nutlin-3a treatment was initiated. HCA2 cells were exposed to Nutlin-3a for 9 days, and aortic endothelial cells were exposed to Nutlin-3a for 11 days. […] Percent survival was calculated as [cell count on the last day of Nutlin-3a treatment/initial cell count on first day of Nutlin-3a treatment].

[2] = test system: senescent foreskin fibroblasts (HCA2 and BJ), lung fibroblasts (IMR90); test: Cell count survival assay of Nutlin-3a on irradiation-induced senescent fibroblasts; type: cell-based, human; conditions: 10 Gy irradiated HCA2, BJ, Nutlin-3a 0, 2.5, 10 μM for 9 days
Method: as §1
Foreskin fibroblast cell lines HCA2 and BJ, lung fibroblast cell line IMR90, and mouse embryonic fibroblasts were exposed to 10 Gy of ionizing radiation (IR) to induce senescence. […] Percent survival was calculated as [cell count on day 9 of Nutlin-3a treatment/initial cell count on first day of Nutlin-3a treatment].

[3] = test system: pATM, γH2AX, IkBa, MDM2, p53, p21 in senescent IMR90 cells; test: Immunoblot of DNA damage response proteins in irradiated senescent IMR90 cells treated with Nutlin-3a; type: cell-based, human
Method: Primary human fibroblast (IMR90) cells were induced to senesce by applying 10 Gy of irradiation. Seven days after irradiation (Day 0), cells were treated with 10 μM Nutlin-3a or vehicle (DMSO) for nine days (Day 9). The drug or vehicle was refreshed every three days. Drug/vehicle was removed at Day 9 and the cells were cultured for an additional six days in media without drug or DMSO, changing media every three days. Cells were collected at Day 0 (non-senescent cells), Day 9, Day 12, and Day 15, and protein extracted and processed for immunoblotting (Western blotting). Two samples were processed at each time point; the results are provided for one sample in FIG. 14.

[4] = test system: LDLR−/−/3MR double transgenic mice fed a HFD; test: Atherosclerosis model, LDLR-/-/3MR double transgenic mice on HFD, ganciclovir weeks 12-13 and 14-15; type: in vivo, mouse; conditions: 25 mg/kg ip; versus LDLR−/−/HFD controls
Method: The study illustrated in FIG. 43B assessed the extent to which […] based clearance of senescent cells from LDLR^−/− /3MR double transgenic mice improves pre-existing atherogenic disease. LDLR^−/− MR double transgenic mice (10 weeks) and LDLR^−/− single transgenic mice (10 weeks) are fed a high fat diet beginning at Week 0 until Week 12. Gancyclovir is administered to both groups of mice (25 mg/kg intraperitoneally) from weeks 12-13 and weeks 14-15. At week 16, the level of plaque and the number of senescent cells in the plaques are determined.

[5] = test system: LDLR−/−/3MR double transgenic mice; test: Atherosclerosis model, LDLR-/-/3MR mice, 100 day ganciclovir treatment period; type: in vivo, mouse
Method: The impact of clearance of senescent cells on the stability and size of mature atherosclerotic plaques was studied in LDLR^−/− MR double transgenic mice. From 10 weeks of age, LDLR^−/− MR double transgenic mice (10 weeks) and LDLR^−/− single transgenic mice (control) were fed a high fat diet (Harlan Teklad TD.88137) having 42% calories from fat beginning at Week 0 until Week 12.5, when the mice were switched to normal chow diet. Both groups of mice were treated with ganciclovir from week 12.5 over the next 100 days, with each treatment cycle comprising 5 days of ganciclovir (25 mg/kg intraperitoneally daily) and 14 days off. At the end of the 100 day treatment period, the mice were sacrificed, plasma and tissues were collected, and atherosclerosis was quantitated. Descending aortas were dissected and stained with Sudan IV to visualize the plaque lipids. […] Plaques from ganciclovir-treated LDLR^−/− control and LDLR^−/− MR mice (see dashed circled plaques in FIGS. 55A-B, respectively) were harvested and cut into cross-sections and stained with […] the general architecture of the atherosclerotic plaques. “#” indicates fat located on the outside of the aorta (see FIG. 55A). The plaques marked with an “*” and “*” in FIGS. 55A and B, respectively, are shown as stained cross-sections in FIGS. 55B and D, respectively. […] The plaque from the control mice has identifiable “lipid pockets” accumulating within. […] Disruption or tear in the cap of a lipid-rich plaque is a trigger for coronary events through exposure of plaque thrombogenic components to platelets and clotting components of the blood. Plaques that grow more rapidly as a result of rapid lipid deposition and have thin fibrin caps are prone to rupture. Slowly growing plaques with mature fibrin caps tend to stabilize and are not prone to rupture. Taken together, these experiments indicate that removal of senescent cells may affect atherosclerotic plaque architecture and have a stabilizing effect.

[6] = test system: paclitaxel treated p16-3MR mice; test: Chemotherapy related side effects: voluntary exercise (wheel counts) after paclitaxel in p16-3MR mice; type: in vivo, mouse; conditions: ABT-263 100 mg/kg ip daily 7 days; ganciclovir 25 mg/kg ip daily 3 days
Method: ABT-263 (100 mg/kg) was administered intraperitoneally daily for seven days after paclitaxel administration. Two days after the last dose of ABT-263, all groups of animals were housed in metabolic cages (promethion, sable systems international, Las Vegas, Nev.) to monitor voluntary exercise as determined by wheel counts. Data were collected and analyzed two days later. Clearance of senescent cells by ABT-263 and ganciclovir restored approximately 70% of wheel count reduction caused by chemotherapy treatment.

SMILES | sensitivity of doxorubicin-induced senescent cells (percent survival) [1] | cell survival of senescent fibroblasts (percent survival) [2] | phosphorylation of the kinase ATM (pATM S1981) ([3]; 10 μM, also after drug removal) | level of IkBa ([3]; after drug is removed) | phosphorylation of H2AX (γH2AX) ([3]; after treatment and after drug removal) | levels of MDM2, p53 and p21 protein ([3]; drug present, decreased when drug removed) | % of the aorta covered with plaque [4] | plaque cross-sectional area [4] | % of the aorta covered in plaques ([5]; area of Sudan IV staining, versus LDLR−/− control mice) | atherosclerotic plaques in descending aorta (Sudan IV staining) ([5]; cycles of 5 days 25 mg/kg ip daily, 14 days off, 100 days) | plaque morphology ([5]; stained cross-sections) | restoration of wheel count reduction caused by chemotherapy treatment [6]
COc1ccc(C2=N[C@@H](c3ccc(Cl)cc3)[C@@H](c3ccc(Cl)cc3)N2C(=O)N2CCNC(=O)C2)c(OC(C)C)c1 [Nutlin-3a] | sensitive | reduced cell survival | lower | approaches the level of IkBa in non-senescent cells | declining levels of phosphorylation | elevated | – | – | – | – | – | –
Nc1nc(O)c2ncn(COC(CO)CO)c2n1 [ganciclovir] | – | – | – | – | – | – | reduces the % of the aorta covered with plaque | reduced the plaque cross-sectional area | significantly lower | fewer atherosclerotic plaques with less intense staining | presence of a thick fibrin cap and the absence of lipid pockets | approximately 70%
